Test results from ChEMBL document CHEMBL4665861, “Chemical constituents from Macleaya cordata (Willd) R. Br. and their phenotypic functions against a Parkinson's disease patient-derived cell line” (Bioorg Med Chem, 2020).
One block for each compound: values may come before it. Activity calls are given as the source filed them. No cut-off for these calls is given here.

Columns and labels:
[1] = (§1) Induction of cytological phenotypic changes in cellular organelles in Parkinson's disease patient human ONS derived C1200080013 cells assessed as perturbation of auto-phagosomal features by measuring depletion in LC3b staining intensity at 30 uM incubated for 24 hrs by anti-LC3b1/335/DAPI staining based fluorescence microscopic analysis; type: tissue-based; settings: c1200080013, 24 h
[2] = Induction of cytological phenotypic changes in cellular organelles in Parkinson's disease patient human ONS derived C1200080013 cells assessed as changes in features associated with early endosome antigen1 by measuring alteration in EEA1 staining intensity at 10 uM incubated for 24 hrs by LysoTrackerRed DND-99/anti-EEA1 staining based fluorescence microscopic analysis; settings: c1200080013, 24 h
[3] = as §1, with “mitochondria” for “auto-phagosomal”, “reduction” for “depletion”, “MitoTracker” for “LC3b”, “MitoTrackerOrange CMTMRos/DAPI” for “anti-LC3b1/335/DAPI”; settings: c1200080013, 24 h
[4] = (§2) Induction of cytological phenotypic changes in cellular organelles in Parkinson's disease patient human ONS derived C1200080013 cells assessed as perturbation of early endosomal features by measuring reduction in EEA1 staining intensity at 30 uM incubated for 24 hrs by LysoTrackerRed DND-99/anti-EEA1 staining based fluorescence microscopic analysis; type: tissue-based; settings: c1200080013, 24 h
[5] = Cytotoxicity against Parkinson's disease patient human ONS derived C1200080013 cells assessed as cell death at 30 uM incubated for 24 hrs; type: cell-based; settings: c1200080013, 24 h
[6] = as §1, with “LC3b marker intensity in inner region of cytoplasm” for “features”, “log2ratio” for “depletion in LC3b staining intensity”; type: tissue-based; settings: c1200080013, 24 h
C1200080013 = assay: (§3) Induction of cytological phenotypic changes in cellular organelles in Parkinson's disease patient human ONS derived C1200080013 cells assessed as perturbation in mitochondrial features by measuring punctuate and fragmented mitochondrial morphology at 30 uM incubated for 24 hrs by MitoTrackerOrange CMTMRos/DAPI staining based fluorescence microscopic analysis; type: functional, cell-based
[7] = as §2, with “EEA1 marker intensity in cytoplasm” for “early endosomal features”, “log2ratio” for “reduction in EEA1 staining intensity”; type: tissue-based; settings: c1200080013, 24 h
[8] = as §3, with “perturbation of mitochondria marker intensity” for “perturbation”, “inner region of cytoplasm” for “mitochondrial features”, “log2ratio” for “punctuate and fragmented mitochondrial morphology”; type: functional
[9] = Induction of cytological phenotypic changes in cellular organelles in Parkinson's disease patient human ONS derived C1200080013 cells assessed as changes in mitochondria marker intensity in inner region of cytoplasm at 20 uM incubated for 24 hrs by MitoTrackerOrange CMTMRos/DAPI staining based fluorescence microscopic analysis; settings: c1200080013, 24 h

Structure (SMILES): CCN(CC)CCCC(C)Nc1ccnc2cc(Cl)ccc12 (configuration not stated) [CHLOROQUINE]
Activity [1]: Non-Toxic
Activity [2]: Toxic

Structure (SMILES): COc1cc(/C=C/C(=O)O[C@@H]2C[C@](O)(C(=O)O)C[C@@H](O)[C@H]2O)ccc1O
Activity [1]: Non-Toxic
Activity [3]: Non-Toxic
Activity [4]: Non-Toxic

Structure (SMILES): COc1cc2c(c3c[n+](C)c4c5cc6c(cc5ccc4c13)OCO6)OCO2
Activity [5]: Toxic

Structure (SMILES): COc1cc(/C=C/C(=O)O)ccc1O[C@@H]1O[C@H](CO)[C@@H](O)[C@H](O)[C@H]1O
Activity [1]: Non-Toxic
Activity [3]: Non-Toxic
Activity [4]: Non-Toxic

log(ratio) [6]: -0.99
Structure (SMILES): COc1ccc2c(c1OC)C(C(C)O)N(C)c1c-2ccc2cc3c(cc12)OCO3 (configuration not stated)

Structure (SMILES): C[n+]1cc2c3c(ccc2c2ccc4cc5c(cc4c21)OCO5)OCO3 [SANGUINARIUM]
Activity [5]: Toxic

log(ratio) [7]: -0.73
Structure (SMILES): COc1ccc2c(c1OC)C(CO)N(C)c1c-2ccc2cc3c(cc12)OCO3 (configuration not stated)
Activity (C1200080013): Active
log(ratio) [8]: -0.85

Structure (SMILES): COc1ccc2c(c[n+](C)c3c4cc5c(cc4ccc23)OCO5)c1OC [CHELERYTHRINE]
Activity [5]: Toxic

Structure (SMILES): COc1cc(OC)c2c(c[n+](C)c3c4cc5c(cc4ccc23)OCO5)c1OC
Activity [5]: Toxic

Structure (SMILES): C=C(C)[C@H]1Cc2c(ccc3c2O[C@@H]2COc4cc(OC)c(OC)cc4[C@@H]2C3=O)O1 [ROTENONE]
Activity [9]: Toxic
